Values of other authors, collected in paper PMC8513935.

Assays:
[1] = experimental, compiled by the authors from the literature (the ESI cites the sources)
[2] = derived by the authors as gas->solvent minus gas->water (a hypothetical dry solvent; the ESI), not a two-phase measurement

CCCCCCc1ccccc1
log K of transfer, gas to solvent ([1]; Hexadecane, 25 C): 5.72 log10 K
log K of transfer, gas to solvent ([1]; Methanol, 25 C): 5.23 log10 K
log K of transfer, gas to solvent ([1]; Water, 25 C): 0.03 log10 K
log K of transfer, water to solvent ([2]; Hexadecane, 25 C): 5.69 log10 K
log K of transfer, water to solvent ([2]; Methanol, 25 C): 5.2 log10 K

C1CCCCC1
log K of transfer, gas to solvent ([1]; 1,2-Dichloroethane, 25 C): 2.79 log10 K
log K of transfer, gas to solvent ([1]; 2-Methylpropan-1-ol, 25 C): 2.83 log10 K
log K of transfer, gas to solvent ([1]; 2-Methylpropan-2-ol, 25 C): 2.69 log10 K
log K of transfer, gas to solvent ([1]; Benzene, 25 C): 2.97 log10 K
log K of transfer, gas to solvent ([1]; Butan-1-ol, 25 C): 2.73 log10 K
log K of transfer, gas to solvent ([1]; Butan-2-ol, 25 C): 2.67 log10 K
log K of transfer, gas to solvent ([1]; Butanone, 25 C): 2.75 log10 K
log K of transfer, gas to solvent ([1]; Butyronitrile, 25 C): 2.67 log10 K
log K of transfer, gas to solvent ([1]; CCl4, 25 C): 3.22 log10 K
log K of transfer, gas to solvent ([1]; Chlorobenzene, 25 C): 3.23 log10 K
log K of transfer, gas to solvent ([1]; Chloroform, 25 C): 3.26 log10 K
log K of transfer, gas to solvent ([1]; Cyclohexane, 25 C): 3.25 log10 K
log K of transfer, gas to solvent ([1]; Cyclohexanone, 25 C): 2.81 log10 K
log K of transfer, gas to solvent ([1]; Decan-1-ol, 25 C): 2.5 log10 K
log K of transfer, gas to solvent ([1]; Di-n-butyl ether, 25 C): 3.01 log10 K
log K of transfer, gas to solvent ([1]; Dichloromethane, 25 C): 3.01 log10 K
log K of transfer, gas to solvent ([1]; Diethyl Ether, 25 C): 3.07 log10 K
log K of transfer, gas to solvent ([1]; Ethanol, 25 C): 2.55 log10 K
log K of transfer, gas to solvent ([1]; Heptan-1-ol, 25 C): 2.73 log10 K
log K of transfer, gas to solvent ([1]; Hexadecane, 25 C): 2.96 log10 K
log K of transfer, gas to solvent ([1]; Hexan-1-ol, 25 C): 2.75 log10 K
log K of transfer, gas to solvent ([1]; Hexane, 25 C): 3.1 log10 K
log K of transfer, gas to solvent ([1]; Methanol, 25 C): 2.43 log10 K
log K of transfer, gas to solvent ([1]; Octan-1-ol, 25 C): 2.71 log10 K
log K of transfer, gas to solvent ([1]; Pentan-1-ol, 25 C): 2.72 log10 K
log K of transfer, gas to solvent ([1]; Perfluoroalkane, 25 C): 1.96 log10 K
log K of transfer, gas to solvent ([1]; Propan-1-ol, 25 C): 2.55 log10 K
log K of transfer, gas to solvent ([1]; Propan-2-ol, 25 C): 2.53 log10 K
log K of transfer, gas to solvent ([1]; Propanone, 25 C): 2.6 log10 K
log K of transfer, gas to solvent ([1]; Propionitrile, 25 C): 2.51 log10 K
log K of transfer, gas to solvent ([1]; Tetrahydrofuran, 25 C): 3.13 log10 K
log K of transfer, gas to solvent ([1]; Water, 25 C): -0.9 log10 K
log K of transfer, water to solvent ([2]; 1,2-Dichloroethane, 25 C): 3.69 log10 K
log K of transfer, water to solvent ([2]; 2-Methylpropan-1-ol, 25 C): 3.73 log10 K
log K of transfer, water to solvent ([2]; 2-Methylpropan-2-ol, 25 C): 3.59 log10 K
log K of transfer, water to solvent ([2]; Acetone, 25 C): 3.5 log10 K
log K of transfer, water to solvent ([2]; Benzene, 25 C): 3.87 log10 K
log K of transfer, water to solvent ([2]; Butan-1-ol, 25 C): 3.63 log10 K
log K of transfer, water to solvent ([2]; Butan-2-ol, 25 C): 3.57 log10 K
log K of transfer, water to solvent ([2]; Butanone, 25 C): 3.65 log10 K
log K of transfer, water to solvent ([2]; Butyronitrile, 25 C): 3.57 log10 K
log K of transfer, water to solvent ([2]; CCl4, 25 C): 4.12 log10 K
log K of transfer, water to solvent ([2]; Chlorobenzene, 25 C): 4.13 log10 K
log K of transfer, water to solvent ([2]; Chloroform, 25 C): 4.16 log10 K
log K of transfer, water to solvent ([2]; Cyclohexane, 25 C): 4.15 log10 K
log K of transfer, water to solvent ([2]; Cyclohexanone, 25 C): 3.71 log10 K
log K of transfer, water to solvent ([2]; Decan-1-ol, 25 C): 3.4 log10 K
log K of transfer, water to solvent ([2]; Di-n-butyl ether, 25 C): 3.91 log10 K
log K of transfer, water to solvent ([2]; Dichloromethane, 25 C): 3.91 log10 K
log K of transfer, water to solvent ([2]; Diethyl Ether, 25 C): 3.97 log10 K
log K of transfer, water to solvent ([2]; Ethanol, 25 C): 3.45 log10 K
log K of transfer, water to solvent ([2]; Heptan-1-ol, 25 C): 3.63 log10 K
log K of transfer, water to solvent ([2]; Hexadecane, 25 C): 3.86 log10 K
log K of transfer, water to solvent ([2]; Hexan-1-ol, 25 C): 3.65 log10 K
log K of transfer, water to solvent ([2]; Hexane, 25 C): 4 log10 K
log K of transfer, water to solvent ([2]; Methanol, 25 C): 3.33 log10 K
log K of transfer, water to solvent ([2]; Octan-1-ol(dry), 25 C): 3.61 log10 K
log K of transfer, water to solvent ([2]; Pentan-1-ol, 25 C): 3.62 log10 K
log K of transfer, water to solvent ([2]; Perfluoroalkane, 25 C): 2.86 log10 K
log K of transfer, water to solvent ([2]; Propan-1-ol, 25 C): 3.45 log10 K
log K of transfer, water to solvent ([2]; Propan-2-ol, 25 C): 3.43 log10 K
log K of transfer, water to solvent ([2]; Propionitrile, 25 C): 3.41 log10 K
log K of transfer, water to solvent ([2]; Tetrahydrofuran, 25 C): 4.03 log10 K

CCCCNCCCC
log K of transfer, gas to solvent ([1]; Hexadecane, 25 C): 4.35 log10 K
log K of transfer, gas to solvent ([1]; Water, 25 C): 2.38 log10 K
log K of transfer, water to solvent ([2]; Hexadecane, 25 C): 1.97 log10 K

NC1CCCCC1
log K of transfer, gas to solvent ([1]; Hexadecane, 25 C): 3.79 log10 K
log K of transfer, gas to solvent ([1]; Water, 25 C): 3.37 log10 K
log K of transfer, water to solvent ([2]; Hexadecane, 25 C): 0.426 log10 K

CNC(C)=O
log K of transfer, gas to solvent ([1]; Hexadecane, 25 C): 2.97 log10 K
log K of transfer, gas to solvent ([1]; Water, 25 C): 6.88 log10 K
log K of transfer, water to solvent ([2]; Hexadecane, 25 C): -3.9 log10 K
